Results: PMC10295463, “Computational Characterization of the Binding Properties of the HIV1-Neutralizing Antibody PG16 and Design of PG16-Derived CDRH3 Peptides” (Biology, 2023)
Bridge positions count the residues as written; N and C are the ends. Square brackets hold non-standard residues; d marks the D form. Peptide text beside a SMILES is read from it. * marks the point of attachment. Biotin = O=C1N[C@H]2[C@H](CS[C@H]2CCCCC(=O)*)N1; pY = N[C@@H](Cc1ccc(OP(=O)(O)O)cc1)C(=O)O; AEEA = NCCOCCOCC(=O)O

Target: T1, gp120 HxBc2 (Human immunodeficiency virus type 1 group M subtype B, UniProt P04578)
T1 construct: incubated for 3 h with gp120 HxBc2 (ImmuneTech); purchased ImmuneTech
Test: Peptide binding assay (ELISA): gp120 binding to immobilized biotinylated peptide
Design: species or system HIV-1
Conditions: same ELISA, gp120 up to 16.6 nM
Experimental: High-binding Corning Costar microtiter half-area plates were coated with Neutravidin (Thermo Scientific, Dreieich, Germany, 4.0 μ g /mL) in 0.1 M carbonate buffer pH 9.6, overnight at 4 ^∘C . After the blocking of unspecific binding with 1% BSA in 0.1 M phosphate buffer pH 7.2, for 1 h , the neutravidin-coated plate was incubated with 2 μ m biotinylated peptide for 2 h . Plates were then incubated for 3 h with gp120 HxBc2 (ImmuneTech, New York, NY, USA) at three-fold serial dilutions, starting at 16.6 nM. Bound gp120 was detected with sheep anti-gp120 (Aalto Bio Reagents, Dublin, Ireland) 0.1 μ g /mL) for 1 h , followed by rabbit anti-sheep-HRP conjugate (Jackson Immuno Research, Ely, UK, 0.1 μ g /mL) for 1 h . All peptides and proteins were diluted in 0.1 M phosphate buffer pH 7.2, containing 0.01% Tween. Plates were developed with OPD ( 1 m g /mL) in the presence of 0.03% H2O2 for approximately 10 min in the dark. After the reaction was stopped with 2 M H2SO4, absorbance was read at 492 n m . The absorbance of the blanks (samples without peptide) was subtracted. All data points present means of duplicates. Curves were fitted and EC50 values calculated using the program Origin 2021 (OriginLab Corporation, Northampton, MA, USA).

CC[C@H](C)[C@@H]1NC(=O)[C@@H](NC(=O)CNC(=O)COCCOCCNC(=O)CCCC[C@@H]2SC[C@@H]3NC(=O)N[C@@H]32)CSSC[C@@H](C(=O)N[C@@H](Cc2ccc(O)cc2)C(=O)N[C@@H](Cc2ccc(OP(=O)(O)O)cc2)C(=O)N[C@@H](CC(=O)O)C(=O)N[C@@H](Cc2ccccc2)C(=O)N[C@@H](CC(N)=O)C(=O)N[C@@H](CC(=O)O)C(=O)NCC(N)=O)NC(=O)[C@H](C(C)C)NC(=O)[C@H](CC(=O)O)NC(=O)[C@H](CC(=O)O)NC(=O)[C@H](Cc2c[nH]cn2)NC(=O)[C@H](Cc2c[nH]c3ccccc23)NC1=O [LW40.2] ({Biotin-AEEA}-GCIWHDDVCY[pY]DFNDG-NH2; disulfide 2-9)
binding of gp120 to the peptide (in words): no detectable binding at all
